Experimental data published in publication PMC6756013, “B591, a novel specific pan-PI3K inhibitor, preferentially targets cancer stem cells” (Oncogene, 2019).

How the values were obtained:
[1] = tested on: MDA-MB-231 and SUM-159PT monolayer and mammosphere cells; test: Apoptosis of monolayer versus mammosphere cells (PE-Annexin V/7-AAD); assay type: cell-based, human; settings: 48 h
Method: (§1) Cells were treated with indicated agents for 48 h, and cells were harvested and processed for apoptosis assay using the PE-Annexin V/7-AAD Apoptosis Detection Kit. d Representative flow cytometry plots of apoptosis inducing activity of B591 (10 μM) and paclitaxel (10 nM) on monolayer and mammosphere MDA-MB-231 cells. e B591 preferentially targeted CD44^high/CD24^low cells. Cells were treated with B591 or paclitaxel for 2 days. Following a 4-day recovery period, cells were co-stained with CD44 and CD24 antibodies and subjected to FACS analysis. Representative flow cytometry plots show the effect of B591 on CD44^high/CD24^low population in MDA-MB-231 cells in vitro. f B591 decreased mammosphere forming efficiency. Primary MDA-MB-231 mammospheres were treated with B591 or paclitaxel for 48 h. Results of the secondary mammosphere-formation assay are shown. Scale bar represents 40 μm. g B591 decreased the expression of CSC markers in MDA-MB-231 cells. Cells were treated with B591 or paclitaxel for 2 days. […] They label a gated population in plots with axes CD44 and CD24. / Panel E: DMSO is the vehicle control. Its printed value is included all the same.
Supplementary Fig. S10. B591 preferentially targets CSCs. […] Following a 4-day recovery period, the expression of CSC markers was analyzed with western blot analysis.

[2] = tested on: MDA-MB-231 and SUM-159PT monolayer and mammosphere cells; test: Proliferation inhibition of monolayer versus mammosphere cells; assay type: cell-based, human
Method: The proliferation inhibitory activities of B591 were compared between monolayer and mammosphere cells.
as §1

[3] = tested on: SUM-159PT cells; test: Mammosphere formation after paclitaxel pre-treatment; assay type: cell-based; settings: 8 nM Paclitaxel or 8 nM Paclitaxel plus 5 μM B591 for 24 h
Method: Fig. 6 B591 reduces breast tumor metastasis and recurrence. a Representative images show the effect of B591 (8 mg/kg) on lung metastasis of 4T1 cells, and data from six mice were plotted. b SUM-159PT cells were respectively treated with the indicated agents (8 nM Paclitaxel, 8 nM Paclitaxel plus 5 μM B591) for 24 h, the cells were then cultured for mammospheres. Representative images were shown, and data from two independent experiments were plotted. c–f SUM-159PT xenografts (n = 7) were treated with 4 mg/kg Paclitaxel, or 10 mg/kg B591, or both for 2 weeks, then ended the treatment and waited for tumor recurrence. Tumor volume (c) and body weight (d) were measured every 2 days after treatment, and tumors were photographed (e) and weighted (f) at the end of the experiment. ^*p < 0.05, ^**p < 0.01 versus indicated groups
Based on the finding that B591 preferentially targets CSCs, we supposed that by eliminating the breast CSCs, B591 might delay breast tumor recurrence after initial treatment with chemotherapy drugs. Paclitaxel is a first-line chemotherapeutic agent used for breast cancer therapy. SUM-159PT cells were pre-treated with paclitaxel, and then the cells remaining alive were cultured for mammospheres.

[4] = tested on: ALDHhigh fractions in SUM-159PT cells; test: ALDH activity assay (ALDEFLUOR); assay type: cell-based; settings: 4 µM
Method: Cells were treated with B591 for 24 h, then the cell suspension was incubated with 20 μl of CD44-APC (#559942, BD Pharmingen, Franklin Lakes, NJ, USA) and 20 μl of CD24-PE (#555428, BD Pharmingen) antibodies for 30 min in dark at 4 ℃. Phenotype was detected by BD FACSCalibur, and data was analyzed with Flowjo. ALDH activity was analyzed with ALDEFLUOR Kit (STEMCELL Technologies, Vancouver, BC, Canada) according to the manufacture’s protocol.

[5] = molecular target: T1, PI3Kα (p110α/p85α) (Homo sapiens, UniProt P42336); test: In vitro PI3K kinase assay (PI3-Kinase Activity ELISA); assay type: biochemical; settings: incubated 30 min at room temperature
T1 construct: purchased Promega
Method: (§2) Purified PI3K Class I Lipid Kinase, including p110α/p85α, p110β/p85α, p110γ, and p110δ/p85α (Promega, Madison, WI, USA), was respectively incubated with B591 for 30 min at room temperature. The activity of PI3K was evaluated using a PI3-Kinase Activity ELISA kit (K-1000s, Echelon, Salt Lake City, UT, USA) according to the manufacture’s instructions. The assay is a competitive ELISA in which the signal is inversely proportional to the amount of PI(3,4,5)P3 produced. After the PI3-Kinase reactions are complete, reaction products are first mixed and incubated with a PI(3,4,5)P3 detector protein, then added to the PI(3,4,5)P3-coated microplate for competitive binding. A peroxidase-linked secondary detector and colorimetric detection is used to detect PI(3,4,5)P3 detector binding to the plate. The colorimetric signal is inversely proportional to the amount of PI(3,4,5)P3 produced by PI3-Kinase. The absorbance was measured at 450 nm with a Multilabel Reader (PerkinElmer, Waltham, MA, USA). ATP competition assays were executed with varying concentrations of ATP, and five concentrations of ATP were 5 μM, 25 μM, 50 μM, 100 μM, and 200 μM respectively. The IC50 values for inhibition of PI3Kβ by B591 were determined at indicated concentrations of ATP. In addition, B591 selectivity was tested against 39 kinases at Life Technologies.

[6] = molecular target: T2, PI3Kδ (p110δ/p85α) (Homo sapiens, UniProt O00329); test: as above; assay type: biochemical; settings: incubated 30 min at room temperature
T2 construct: purchased Promega
Method: as §2

[7] = molecular target: T3, PI3Kβ (p110β/p85α) (Homo sapiens, UniProt P42338); test: as above; assay type: biochemical
T3 construct: purchased Promega
Method: as §2

[8] = molecular target: T4, PI3Kγ (p110γ) (Homo sapiens, UniProt P48736); test: as above; assay type: biochemical; settings: incubated 30 min at room temperature
T4 construct: purchased Promega
Method: as §2

T3 sequence (P42338 whole entry): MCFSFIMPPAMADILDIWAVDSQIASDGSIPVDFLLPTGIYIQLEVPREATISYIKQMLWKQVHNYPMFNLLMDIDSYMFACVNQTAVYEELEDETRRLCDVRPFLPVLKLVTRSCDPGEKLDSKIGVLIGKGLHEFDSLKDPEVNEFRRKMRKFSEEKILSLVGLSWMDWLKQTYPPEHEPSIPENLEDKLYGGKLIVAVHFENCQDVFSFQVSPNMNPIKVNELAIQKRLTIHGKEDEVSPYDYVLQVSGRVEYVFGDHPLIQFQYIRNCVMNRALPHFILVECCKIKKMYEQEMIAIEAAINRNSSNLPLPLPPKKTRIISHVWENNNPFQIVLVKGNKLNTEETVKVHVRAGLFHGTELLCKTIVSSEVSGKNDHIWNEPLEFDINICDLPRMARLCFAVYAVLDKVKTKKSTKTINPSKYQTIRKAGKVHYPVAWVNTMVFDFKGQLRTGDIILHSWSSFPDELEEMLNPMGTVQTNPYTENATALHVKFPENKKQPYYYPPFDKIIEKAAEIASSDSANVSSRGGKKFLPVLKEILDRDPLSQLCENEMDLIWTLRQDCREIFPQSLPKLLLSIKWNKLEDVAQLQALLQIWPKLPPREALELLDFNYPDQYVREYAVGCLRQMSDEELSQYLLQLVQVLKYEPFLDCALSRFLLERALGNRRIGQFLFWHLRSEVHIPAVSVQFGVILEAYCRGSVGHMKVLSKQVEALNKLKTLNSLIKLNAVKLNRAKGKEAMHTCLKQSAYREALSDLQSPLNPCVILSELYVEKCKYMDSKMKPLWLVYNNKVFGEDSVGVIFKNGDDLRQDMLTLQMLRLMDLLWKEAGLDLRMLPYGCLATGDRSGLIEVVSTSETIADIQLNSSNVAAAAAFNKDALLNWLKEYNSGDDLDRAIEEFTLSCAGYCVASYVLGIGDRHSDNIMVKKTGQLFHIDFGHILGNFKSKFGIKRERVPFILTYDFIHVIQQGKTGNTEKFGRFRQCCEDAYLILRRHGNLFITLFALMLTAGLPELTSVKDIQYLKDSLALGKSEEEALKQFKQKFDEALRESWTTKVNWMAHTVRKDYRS
T3 sequence (P27986 whole entry partner): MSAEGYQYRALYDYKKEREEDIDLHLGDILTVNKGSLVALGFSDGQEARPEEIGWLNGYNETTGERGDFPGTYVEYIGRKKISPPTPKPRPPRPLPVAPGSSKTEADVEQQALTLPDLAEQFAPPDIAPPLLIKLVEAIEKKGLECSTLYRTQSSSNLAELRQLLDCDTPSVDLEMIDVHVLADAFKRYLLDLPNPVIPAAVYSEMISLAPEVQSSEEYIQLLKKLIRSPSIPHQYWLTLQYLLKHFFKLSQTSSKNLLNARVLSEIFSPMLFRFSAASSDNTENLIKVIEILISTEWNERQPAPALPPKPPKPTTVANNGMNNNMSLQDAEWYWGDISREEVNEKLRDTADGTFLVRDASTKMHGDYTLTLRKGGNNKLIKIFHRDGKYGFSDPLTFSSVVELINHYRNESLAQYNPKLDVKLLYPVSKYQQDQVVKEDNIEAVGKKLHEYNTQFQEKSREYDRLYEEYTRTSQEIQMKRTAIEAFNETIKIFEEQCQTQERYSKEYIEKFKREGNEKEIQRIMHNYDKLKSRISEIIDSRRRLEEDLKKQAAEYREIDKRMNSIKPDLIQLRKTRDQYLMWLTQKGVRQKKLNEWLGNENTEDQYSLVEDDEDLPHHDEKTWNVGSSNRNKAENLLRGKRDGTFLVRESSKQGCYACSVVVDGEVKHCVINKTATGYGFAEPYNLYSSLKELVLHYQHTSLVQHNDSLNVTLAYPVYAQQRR
T1 sequence (P42336 whole entry): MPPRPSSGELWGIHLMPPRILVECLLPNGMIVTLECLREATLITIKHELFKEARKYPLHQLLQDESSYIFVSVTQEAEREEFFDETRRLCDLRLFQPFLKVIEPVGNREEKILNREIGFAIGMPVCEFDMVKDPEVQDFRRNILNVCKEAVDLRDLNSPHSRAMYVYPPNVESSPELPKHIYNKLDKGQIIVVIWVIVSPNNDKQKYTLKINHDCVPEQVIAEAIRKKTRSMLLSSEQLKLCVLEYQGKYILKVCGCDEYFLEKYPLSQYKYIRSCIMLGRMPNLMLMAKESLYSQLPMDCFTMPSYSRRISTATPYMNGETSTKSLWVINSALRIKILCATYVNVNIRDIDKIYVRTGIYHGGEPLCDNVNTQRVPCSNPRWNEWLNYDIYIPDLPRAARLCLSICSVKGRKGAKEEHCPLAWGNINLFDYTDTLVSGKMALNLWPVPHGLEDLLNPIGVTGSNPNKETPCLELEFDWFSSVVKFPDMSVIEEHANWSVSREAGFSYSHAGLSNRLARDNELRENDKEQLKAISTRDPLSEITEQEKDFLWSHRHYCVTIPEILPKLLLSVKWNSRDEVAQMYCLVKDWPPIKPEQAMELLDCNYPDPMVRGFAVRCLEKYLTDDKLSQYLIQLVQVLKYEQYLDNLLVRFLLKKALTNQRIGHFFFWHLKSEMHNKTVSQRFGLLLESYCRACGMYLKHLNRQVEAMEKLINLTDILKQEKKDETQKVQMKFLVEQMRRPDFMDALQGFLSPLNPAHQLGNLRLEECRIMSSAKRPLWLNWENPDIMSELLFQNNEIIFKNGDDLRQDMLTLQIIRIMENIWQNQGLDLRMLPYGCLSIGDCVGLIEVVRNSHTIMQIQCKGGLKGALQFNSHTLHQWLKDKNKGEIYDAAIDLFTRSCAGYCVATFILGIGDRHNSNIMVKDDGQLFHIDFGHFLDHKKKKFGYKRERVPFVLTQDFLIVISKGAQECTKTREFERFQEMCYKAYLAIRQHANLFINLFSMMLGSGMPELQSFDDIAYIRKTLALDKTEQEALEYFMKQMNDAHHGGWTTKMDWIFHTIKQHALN
T1 sequence (P27986 whole entry partner): as the sequence (P27986 whole entry partner) above
T2 sequence (O00329 whole entry): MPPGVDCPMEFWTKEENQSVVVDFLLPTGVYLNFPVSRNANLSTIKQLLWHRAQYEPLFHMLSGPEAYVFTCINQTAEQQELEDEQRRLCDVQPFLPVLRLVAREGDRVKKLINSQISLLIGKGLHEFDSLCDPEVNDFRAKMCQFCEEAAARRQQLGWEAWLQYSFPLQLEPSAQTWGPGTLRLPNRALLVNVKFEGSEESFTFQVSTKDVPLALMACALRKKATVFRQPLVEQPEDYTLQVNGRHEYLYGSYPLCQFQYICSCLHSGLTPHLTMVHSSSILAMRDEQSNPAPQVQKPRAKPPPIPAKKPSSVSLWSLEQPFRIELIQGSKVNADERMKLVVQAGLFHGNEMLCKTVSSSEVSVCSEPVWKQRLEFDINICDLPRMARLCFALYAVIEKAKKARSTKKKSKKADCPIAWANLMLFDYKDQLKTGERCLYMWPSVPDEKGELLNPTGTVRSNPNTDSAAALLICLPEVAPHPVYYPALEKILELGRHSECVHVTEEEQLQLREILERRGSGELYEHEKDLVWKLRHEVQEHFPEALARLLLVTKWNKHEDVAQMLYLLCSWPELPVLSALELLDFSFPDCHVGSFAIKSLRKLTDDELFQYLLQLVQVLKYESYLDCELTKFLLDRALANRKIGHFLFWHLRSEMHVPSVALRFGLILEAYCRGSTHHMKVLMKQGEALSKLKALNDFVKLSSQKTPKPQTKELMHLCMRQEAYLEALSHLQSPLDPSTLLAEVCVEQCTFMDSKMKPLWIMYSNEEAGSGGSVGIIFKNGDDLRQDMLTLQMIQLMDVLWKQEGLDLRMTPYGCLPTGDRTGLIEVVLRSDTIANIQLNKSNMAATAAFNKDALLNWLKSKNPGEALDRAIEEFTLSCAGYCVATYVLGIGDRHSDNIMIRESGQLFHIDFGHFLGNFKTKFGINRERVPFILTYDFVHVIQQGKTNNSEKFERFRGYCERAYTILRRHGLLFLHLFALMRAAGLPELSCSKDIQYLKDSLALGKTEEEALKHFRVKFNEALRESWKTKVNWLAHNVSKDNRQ
T2 sequence (P27986 whole entry partner): as the sequence (P27986 whole entry partner) above
T4 sequence (P48736 whole entry): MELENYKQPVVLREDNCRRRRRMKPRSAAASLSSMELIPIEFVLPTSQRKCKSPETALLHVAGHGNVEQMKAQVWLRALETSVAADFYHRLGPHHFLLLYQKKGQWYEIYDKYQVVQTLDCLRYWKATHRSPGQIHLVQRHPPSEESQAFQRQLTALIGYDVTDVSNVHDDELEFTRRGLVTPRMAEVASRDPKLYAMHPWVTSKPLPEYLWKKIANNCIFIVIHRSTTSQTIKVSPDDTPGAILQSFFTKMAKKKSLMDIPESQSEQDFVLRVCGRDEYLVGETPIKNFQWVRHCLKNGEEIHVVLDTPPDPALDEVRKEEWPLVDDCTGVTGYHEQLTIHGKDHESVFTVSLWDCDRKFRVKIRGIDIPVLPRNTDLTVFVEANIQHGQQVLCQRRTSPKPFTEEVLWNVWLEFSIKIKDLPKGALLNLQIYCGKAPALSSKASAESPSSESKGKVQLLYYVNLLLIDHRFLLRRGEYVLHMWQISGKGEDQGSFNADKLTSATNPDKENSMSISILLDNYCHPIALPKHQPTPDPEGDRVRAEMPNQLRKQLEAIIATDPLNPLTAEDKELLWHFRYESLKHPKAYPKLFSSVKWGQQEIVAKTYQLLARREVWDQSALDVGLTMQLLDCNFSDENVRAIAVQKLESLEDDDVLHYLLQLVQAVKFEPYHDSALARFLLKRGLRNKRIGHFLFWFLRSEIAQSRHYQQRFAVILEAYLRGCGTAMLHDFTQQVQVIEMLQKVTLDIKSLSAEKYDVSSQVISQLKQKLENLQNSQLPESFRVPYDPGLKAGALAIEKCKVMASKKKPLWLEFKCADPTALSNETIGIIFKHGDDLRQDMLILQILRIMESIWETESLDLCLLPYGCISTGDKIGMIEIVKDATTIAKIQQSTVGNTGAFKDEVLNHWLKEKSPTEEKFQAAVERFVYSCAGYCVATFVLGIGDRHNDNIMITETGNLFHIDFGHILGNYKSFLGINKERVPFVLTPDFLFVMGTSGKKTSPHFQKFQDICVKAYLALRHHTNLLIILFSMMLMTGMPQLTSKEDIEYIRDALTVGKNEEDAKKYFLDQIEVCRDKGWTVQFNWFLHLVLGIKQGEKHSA

Q: `Cc1cc2c(cc1C)[n+](Cc1ccccc1Br)cn2Cc1ccc2c(c1)CCO2.[Br-]` [B591, 3-(2-bromobenzyl)-1-((2,3-dihydrobenzofuran-5-yl)methyl) -5,6-dimethyl-1H-benzo[d]imidazol-3-ium bromide] was tested. Which “Apoptosis induction, mammosphere versus monolayer populations” value [1] did it give?
A: preferentially induced the apoptosis of mammosphere populations

Q: And the “Proliferation inhibitory activity, mammosphere versus monolayer cells” value [2]?
A: more potent against mammosphere cells

Q: And the “Formation of mammospheres / paclitaxel-enriched CSCs” value [3]?
A: the paclitaxel-enriched CSCs were effectively eliminated

Q: What about the “Reduction of ALDHhigh fractions” value [4] of the same molecule?
A: 90%

Q: What about the IC50 [5] of the same molecule?
A: 1.3 ± 0.27 µM

Q: What about the IC50 [6] of the same molecule?
A: 1.58 ± 0.16 µM

Q: What about the “Mode of inhibition (IC50 for PI3Kβ at various concentrations of ATP)” value ([7]; ATP 5, 25, 50, 100 and 200 μM) of the same molecule?
A: ATP-competitive inhibitor

Q: And the IC50 ([7]; PI3-Kinase Activity ELISA, incubated 30 min at room temperature)?
A: 0.364 ± 0.13 µM

Q: What about the IC50 [8] of the same molecule?
A: 0.107 ± 0.07 µM
